Test results: the NIST ThermoML archive (doi:10.1016/j.tca.2015.02.020)
± gives the expanded uncertainty stated by the source.

Assay: molar heat capacity at constant pressure; xn = mol fraction of the nth substance listed
Settings: 101 kPa, Liquid, Small sample (50 mg) DSC

NCCCO [3-amino-1-propanol] + O
Settings | molar heat capacity at constant pressure [J/K/mol]
207.56 K, x1 = 0.16 | 73.85 ± 15
207.57 K, x1 = 0.26 | 81.82 ± 16
208.04 K, x1 = 0.68 | 129.03 ± 26
209.45 K, x1 = 0.19 | 75.33 ± 15
209.97 K, x1 = 0.68 | 142.1 ± 6.3
210.91 K, x1 = 0.19 | 78.22 ± 3.5
211.07 K, x1 = 0.26 | 88.06 ± 3.6
212.29 K, x1 = 0.16 | 75.21 ± 15
212.29 K, x1 = 0.26 | 82.81 ± 17
212.78 K, x1 = 0.68 | 130.16 ± 26
213.28 K, x1 = 0.68 | 142.67 ± 6.3
214.19 K, x1 = 0.19 | 76.49 ± 15
214.23 K, x1 = 0.19 | 79.09 ± 3.5
214.38 K, x1 = 0.26 | 89.05 ± 3.9
217.03 K, x1 = 0.16 | 76.56 ± 15
217.04 K, x1 = 0.26 | 84.12 ± 17
217.51 K, x1 = 0.68 | 131.3 ± 26
218.93 K, x1 = 0.19 | 78.22 ± 16
220.86 K, x1 = 0.19 | 81.11 ± 3.5
221.02 K, x1 = 0.26 | 90.36 ± 3.9
221.77 K, x1 = 0.16 | 78.19 ± 16
221.77 K, x1 = 0.26 | 85.11 ± 17
222.25 K, x1 = 0.68 | 133 ± 27
223.67 K, x1 = 0.19 | 79.95 ± 16
224.18 K, x1 = 0.19 | 83.13 ± 3.5
224.35 K, x1 = 0.26 | 91.35 ± 3.9
226.51 K, x1 = 0.16 | 79.55 ± 16
226.51 K, x1 = 0.26 | 86.42 ± 17
226.99 K, x1 = 0.68 | 133.57 ± 27
228.4 K, x1 = 0.19 | 81.39 ± 16
230.81 K, x1 = 0.19 | 87.46 ± 3.8
230.97 K, x1 = 0.26 | 93.32 ± 3.9
231.25 K, x1 = 0.16 | 81.18 ± 16
231.25 K, x1 = 0.26 | 88.06 ± 18
231.73 K, x1 = 0.68 | 134.71 ± 27
233.15 K, x1 = 0.19 | 82.84 ± 17
234.29 K, x1 = 0.26 | 94.31 ± 3.9
235.99 K, x1 = 0.16 | 82.54 ± 17
235.99 K, x1 = 0.26 | 89.71 ± 18
236.47 K, x1 = 0.68 | 135.85 ± 27
237.88 K, x1 = 0.19 | 84.28 ± 17
240.73 K, x1 = 0.16 | 83.89 ± 17
240.73 K, x1 = 0.26 | 91.02 ± 18
240.77 K, x1 = 0.19 | 89.19 ± 3.8
240.93 K, x1 = 0.26 | 96.61 ± 4.3
241.21 K, x1 = 0.68 | 137.55 ± 28
242.63 K, x1 = 0.19 | 85.72 ± 17
244.1 K, x1 = 0.19 | 90.63 ± 3.8
244.25 K, x1 = 0.26 | 97.92 ± 4.3
245.48 K, x1 = 0.16 | 85.52 ± 17
245.48 K, x1 = 0.26 | 92.66 ± 19
245.96 K, x1 = 0.68 | 138.69 ± 28
247.38 K, x1 = 0.19 | 87.17 ± 18
249.79 K, x1 = 0.16 | 90.14 ± 3.8
250.23 K, x1 = 0.16 | 86.88 ± 17
250.23 K, x1 = 0.26 | 94.31 ± 19
250.71 K, x1 = 0.68 | 140.39 ± 28
250.75 K, x1 = 0.19 | 93.23 ± 4
250.9 K, x1 = 0.26 | 100.22 ± 4.3
252.13 K, x1 = 0.19 | 88.61 ± 18
253.11 K, x1 = 0.16 | 91.5 ± 3.8
254.07 K, x1 = 0.19 | 94.09 ± 4
254.23 K, x1 = 0.26 | 101.21 ± 4.3
254.97 K, x1 = 0.16 | 88.24 ± 18
254.98 K, x1 = 0.26 | 95.95 ± 19
255.46 K, x1 = 0.68 | 142.1 ± 28
256.88 K, x1 = 0.19 | 90.05 ± 18
259.73 K, x1 = 0.16 | 89.32 ± 18
259.73 K, x1 = 0.26 | 97.59 ± 20
259.77 K, x1 = 0.16 | 93.94 ± 4.1
260.2 K, x1 = 0.68 | 143.8 ± 29
260.72 K, x1 = 0.19 | 96.4 ± 4
260.88 K, x1 = 0.26 | 103.84 ± 4.3
261.62 K, x1 = 0.19 | 91.5 ± 18
263.1 K, x1 = 0.16 | 95.03 ± 4.1
264.05 K, x1 = 0.19 | 97.56 ± 4
264.21 K, x1 = 0.26 | 104.82 ± 4.6
264.47 K, x1 = 0.16 | 90.68 ± 18
264.48 K, x1 = 0.26 | 99.24 ± 20
264.96 K, x1 = 0.68 | 146.08 ± 30
266.1 K, x1 = 0.16 | 96.11 ± 4.1
266.1 K, x1 = 0.19 | 98.13 ± 4
266.1 K, x1 = 0.26 | 105.48 ± 4.6
266.38 K, x1 = 0.19 | 92.94 ± 19
269.23 K, x1 = 0.16 | 91.77 ± 18
269.23 K, x1 = 0.26 | 100.55 ± 20
269.72 K, x1 = 0.68 | 147.21 ± 30
269.76 K, x1 = 0.16 | 97.2 ± 4.1
269.76 K, x1 = 0.68 | 158.01 ± 6.8
270.7 K, x1 = 0.19 | 99.29 ± 4.3
270.87 K, x1 = 0.26 | 106.79 ± 4.6
271.14 K, x1 = 0.19 | 94.38 ± 19
273.09 K, x1 = 0.16 | 98.01 ± 4.1
273.1 K, x1 = 0.68 | 156.88 ± 6.8
274.02 K, x1 = 0.16 | 92.85 ± 19
274.02 K, x1 = 0.26 | 102.19 ± 20
274.07 K, x1 = 0.19 | 100.16 ± 4.3
274.24 K, x1 = 0.26 | 107.45 ± 4.6
274.52 K, x1 = 0.68 | 149.49 ± 30
278.94 K, x1 = 0.16 | 94.21 ± 19
278.94 K, x1 = 0.19 | 96.4 ± 19
278.94 K, x1 = 0.26 | 103.51 ± 21
279.44 K, x1 = 0.68 | 151.19 ± 30
279.97 K, x1 = 0.16 | 99.1 ± 4.3
279.98 K, x1 = 0.68 | 157.45 ± 6.8
280.95 K, x1 = 0.19 | 101.02 ± 4.3
281.12 K, x1 = 0.26 | 108.77 ± 4.6
283.41 K, x1 = 0.16 | 98.83 ± 4.1
283.42 K, x1 = 0.68 | 156.88 ± 6.8
283.84 K, x1 = 0.16 | 94.75 ± 19
283.85 K, x1 = 0.19 | 97.27 ± 20
283.85 K, x1 = 0.26 | 104.82 ± 21
284.35 K, x1 = 0.68 | 151.76 ± 31
284.4 K, x1 = 0.19 | 101.02 ± 4.3
284.56 K, x1 = 0.26 | 108.77 ± 4.6
